PubChem BioAssay (NCI)
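Following 48 hours of exposure in 96-well plates, responses at five concentrations were used to interpolate endpoints linearly. TGI: total growth inhibition.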

Columns and labels:
Assay in all cases: NCI-60 cell line screen, 48 h
786-0 renal = tested on: 786-0 renal
A498 renal = tested on: A498 renal
A549 NSCLC = tested on: A549 NSCLC
ACHN renal = tested on: ACHN renal
BT-549 breast = tested on: BT-549 breast
CAKI-1 renal = tested on: CAKI-1 renal
CCRF-CEM leukemia = tested on: CCRF-CEM leukemia
COLO 205 colon = tested on: COLO 205 colon
DU-145 prostate = tested on: DU-145 prostate
EKVX NSCLC = tested on: EKVX NSCLC
HCT-116 colon = tested on: HCT-116 colon
HCT-15 colon = tested on: HCT-15 colon
HL-60(TB) leukemia = tested on: HL-60(TB) leukemia
HOP-62 NSCLC = tested on: HOP-62 NSCLC
HOP-92 NSCLC = tested on: HOP-92 NSCLC
HT29 colon = tested on: HT29 colon
IGROV1 ovarian = tested on: IGROV1 ovarian
K-562 leukemia = tested on: K-562 leukemia
KM12 colon = tested on: KM12 colon
LOX IMVI melanoma = tested on: LOX IMVI melanoma
M14 melanoma = tested on: M14 melanoma
MALME-3M melanoma = tested on: MALME-3M melanoma
MCF7 breast = tested on: MCF7 breast
MDA-MB-231 breast = tested on: MDA-MB-231 breast
MDA-MB-435 = tested on: MDA-MB-435
MDA-N = tested on: MDA-N
MOLT-4 leukemia = tested on: MOLT-4 leukemia
NCI-H226 lung = tested on: NCI-H226 lung
NCI-H23 lung = tested on: NCI-H23 lung
NCI-H460 lung = tested on: NCI-H460 lung
NCI-H522 lung = tested on: NCI-H522 lung
NCI/ADR-RES ovarian = tested on: NCI/ADR-RES ovarian
OVCAR-3 ovarian = tested on: OVCAR-3 ovarian
OVCAR-5 ovarian = tested on: OVCAR-5 ovarian
OVCAR-8 ovarian = tested on: OVCAR-8 ovarian
PC-3 prostate = tested on: PC-3 prostate
RPMI-8226 leukemia = tested on: RPMI-8226 leukemia
SF-268 CNS = tested on: SF-268 CNS
SF-295 CNS = tested on: SF-295 CNS
SF-539 CNS = tested on: SF-539 CNS
SK-MEL-2 melanoma = tested on: SK-MEL-2 melanoma
SK-MEL-28 melanoma = tested on: SK-MEL-28 melanoma
SK-MEL-5 melanoma = tested on: SK-MEL-5 melanoma
SK-OV-3 ovarian = tested on: SK-OV-3 ovarian
SN12C renal = tested on: SN12C renal
SNB-19 CNS = tested on: SNB-19 CNS
SR leukemia = tested on: SR leukemia
SW-620 colon = tested on: SW-620 colon
T-47D breast = tested on: T-47D breast
TK-10 renal = tested on: TK-10 renal
U251 CNS = tested on: U251 CNS
UACC-62 melanoma = tested on: UACC-62 melanoma
UO-31 renal = tested on: UO-31 renal

Structure (SMILES): O=C(NNC(=O)c1ccccc1O)c1ccccc1O
- TGI (786-0 renal): > 100 µM
- TGI (A498 renal): > 100 µM
- TGI (A549 NSCLC): > 100 µM
- TGI (ACHN renal): > 100 µM
- TGI (BT-549 breast): > 100 µM
- TGI (CAKI-1 renal): > 100 µM
- TGI (CCRF-CEM leukemia): > 100 µM
- TGI (COLO 205 colon): > 38.9 µM
- TGI (DU-145 prostate): > 100 µM
- TGI (EKVX NSCLC): > 100 µM
- TGI (HCT-116 colon): > 100 µM
- TGI (HCT-15 colon): > 100 µM
- TGI (HL-60(TB) leukemia): 0.944 µM
- TGI (HOP-62 NSCLC): > 100 µM
- TGI (HOP-92 NSCLC): > 100 µM
- TGI (HT29 colon): > 100 µM
- TGI (IGROV1 ovarian): > 34.8 µM
- TGI (K-562 leukemia): > 100 µM
- TGI (KM12 colon): > 100 µM
- TGI (LOX IMVI melanoma): > 100 µM
- TGI (M14 melanoma): 25.4 µM
- TGI (MALME-3M melanoma): > 100 µM
- TGI (MCF7 breast): > 100 µM
- TGI (MDA-MB-231 breast): > 100 µM
- TGI (MDA-MB-435): > 100 µM
- TGI (MDA-N): > 100 µM
- TGI (MOLT-4 leukemia): > 91.7 µM
- TGI (NCI-H226 lung): > 100 µM
- TGI (NCI-H23 lung): > 100 µM
- TGI (NCI-H460 lung): > 100 µM
- TGI (NCI-H522 lung): 3.6 µM
- TGI (NCI/ADR-RES ovarian): > 100 µM
- TGI (OVCAR-3 ovarian): > 100 µM
- TGI (OVCAR-5 ovarian): > 100 µM
- TGI (OVCAR-8 ovarian): > 100 µM
- TGI (PC-3 prostate): > 100 µM
- TGI (RPMI-8226 leukemia): > 100 µM
- TGI (SF-268 CNS): > 58.4 µM
- TGI (SF-295 CNS): > 100 µM
- TGI (SF-539 CNS): 6.16 µM
- TGI (SK-MEL-2 melanoma): > 100 µM
- TGI (SK-MEL-28 melanoma): > 100 µM
- TGI (SK-MEL-5 melanoma): > 34.5 µM
- TGI (SK-OV-3 ovarian): > 100 µM
- TGI (SN12C renal): > 100 µM
- TGI (SNB-19 CNS): > 100 µM
- TGI (SR leukemia): > 31.1 µM
- TGI (SW-620 colon): > 100 µM
- TGI (T-47D breast): > 78.4 µM
- TGI (TK-10 renal): > 100 µM
- TGI (U251 CNS): > 100 µM
- TGI (UACC-62 melanoma): > 100 µM
- TGI (UO-31 renal): > 100 µM
